From patent publication US20210038668A1, “TRADITIONAL CHINESE MEDICINE COMPOSITION FOR PREVENTING AND/OR TREATING ISCHEMIC REPERFUSION INJURY” (TASLY PHARMACEUTICAL GROUP CO., LTD., priority 2018, published 2021)

Legend:
Assay type in all cases: in vivo, C57BL/6 mice
brain tissue (edema) = assay: Brain tissue dry/wet weight ratio; settings: 24 h after administration; tPA 10 mg/kg alone; T541 20 mg/kg + tPA 10 mg/kg
Description: Brain tissue dry/wet weight ratio: after reperfused for 24 hours, mice were immediately anesthetized; the head was cut off to take brain; left and right brain was respectively weighed (denoted as wet weight). Afterwards, the brain was placed into a 60° C. drying oven for drying for 72 hours, and then weighed (denoted as dry weight). Brain tissue dry/wet weight ratio is calculated by […].

[1] = system: mice with carotid artery thrombus; assay: Survival rate within 24 hours after administration; settings: tPA 10 mg/kg alone
Description: Mice were anesthetized via intraperitoneal injection by pentobarbital sodium (2%, 45 mg/kg), and neck kin was sterilized. A median incision was cut on the neck, exposed and isolated to obtain arteria carotis communis; a waterproof cushion was used to isolate arteria carotis communis with the length of about 2.5-3 mm from surrounding tissues. The isolated arteria carotis communis was wrapped by a filter paper soaked by 10% FeCl3 for about 1 mm (width), and the filter paper was removed 3 minutes later, the outside of blood vessel was washed by 0.9% normal saline. The waterproof cushion was removed. The neck incision was sutured. The start of Fe3+ stimulation was defined as the beginning of ischemia, and those mice meeting the following conditions were selected into the group: the blood vessel was blocked at the maximum diameter of the neck thrombus 10 minutes after ischemia; the blood flow of the carotid artery distal end was less than 20% of the base value 15 minutes after ischemia; and the thrombus was stable 4.5 hours after ischemia (before reperfusion); the carotid artery vessel at 60% and more of the diameter was blocked by the maximum diameter of the thrombus.
Mice were treated by medicaments or normal saline according to random grouping results 4.5 hours after ischemia. Mice femoral vein was intubated, and left femoral vein was injected tPA (tissue plasminogen activator) or normal saline; right femoral vein was injected the traditional Chinese medicinal composition of the present invention or normal saline; 10% of the total dose was injected via an injection pump, and the rest 90% were continuously injected intravenously for 1 hour with the rate of 0.1 ml/h. Three proportion groups were selected to the traditional Chinese medicinal composition of the present invention respectively below:
The survival rate, neurological scoring, change of carotid artery ischemia size and change of cerebral blood flow perfusion of mice after reperfused for 24 hours were recorded; and the optimal drug concentration was selected for further analysis.

Bax = assay: Western blotting of Bax in brain tissue; settings: brain tissue 24 h after administration, sham = 1.00; tPA 10 mg/kg alone or + T541 20 mg/kg or ingredients at Table 7 doses
Source text: To compare the therapeutical effect on reperfusion injury caused by tPA thrombolysis between the traditional Chinese medicinal composition of the present invention and each ingredient (total saponins of Astragalus, the experiment was divided into the following group (tPA is combined with T541, individual ingredient thereof and compatibility of any two ingredients) specifically as follows: tPA+total saponins of Astragalus (tPA+HQ), tPA+ salvianolic acids (tPA+DS), tPA+Panax notoginseng saponins (tPA+SQ), tPA+ total saponins of Astragalus+salvianolic acids (tPA+HQ+DS), tPA+ total saponins of Astragalus+Panax notoginseng saponins (tPA+HQ+SQ), tPA+ salvianolic acids+Panax notoginseng saponins (tPA+DS+SQ) and tPA+T541. Normal saline served as an isovolumetric control. The usage number in each group is 6.
After reperfused for 24 hours, mice were perfused by normal saline; Western blotting analysis was conducted to the penumbra field of infarcted right cerebral cortex. […] Excessive supernatant was taken out and quantified by a BCA protein quantification liquor (ThermoScientific, US) to measure absorbance value at 560 nm of ELIASA and to calculate the protein concentration according to a standard curve. […] The density of electrophoretic strips was analyzed by an image analysis software Quantityone. […]

[2] = T141 12 mg/kg, T582 15 mg/kg each + tPA 10 mg/kg
[3] = T541 20 mg/kg, T141 12 mg/kg, T582 15 mg/kg each + tPA 10 mg/kg

tPA: tissue-type plasminogen activator (tPA) for thrombolysis
Brain dry/wet weight ratio (brain tissue (edema)): 0.801 ± 0.002 | survival rate (%), 6 h after administration [1, 2]: 70.00% | survival rate (%), 12 h after administration [1, 2]: 60.00% | survival rate (%), 18 h after administration ([1]; T541 20 mg/kg + tPA 10 mg/kg): 50.00% | survival rate (%), 0 h after administration [1, 3]: 100.00% | survival rate (%), 24 h after administration [1, 3]: 50% | Bax (Bax): 5.52 ± 0.78 | Bax/Bcl-2 (Bax): 3.82 ± 0.57
